We go through five compounds from ChEMBL document CHEMBL1201862, “PubChem BioAssay data set” (2004).

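Compound exposure: 48 hours, 5 concentrations, 96-well plates. GI50 is the concentration that inhibits growth by half.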 Active and inactive are the calls of the source. Rule as the data show it: active = GI50 up to about 1.1 µM and inactive = higher.

What all share (experiment): NCI tumour cell line growth inhibition, 48 h
Assay [1] has as its system SW-620.
The test system of assay [2] is HCT-116.
Assay [3] deals with TK-10.
Assay [4] has as its system M14.
The subject of assay [5] is HOP-92.
The test system of assay [6] is OVCAR-3.
Assay [7] deals with HL-60.
The subject of assay [8] is HCT-15.
Assay [9] concerns SK-MEL-2.
Assay [10] concerns SF-539.
Assay [11] deals with SK-MEL-5.
In assay [12] the test system is UO-31.
For assay [13], the system named is NCI-H522.
Assay [14] concerns SN12C.
Assay [15] deals with HOP-62.
The subject of assay [16] is MDA-N.
Assay [17] has as its system CAKI-1.
Assay [18] relates to T47D.

On to `C[C@@H]1CC2(C[C@@H](C)C3[C@@H](CC4(C)CCCC5C6=CC(O)(CC[C@]34C)OC6=CC(=O)OC5(C)C)O2)OC1=O` (some centres undefined), for which the GI50 in assay [1], in [2], in [3], in assay [4], in assay [5] and in assay [6] was > 100 µM (inactive) in each case. Further, the GI50 was > 100 µM (inactive) in assay [7]; above 100 µM in [8]; > 100 µM (inactive) in [9]; > 100 µM (inactive) in [10]; > 100 µM (inactive) in [11]; > 100 µM (inactive) in assay [12]. Also, the GI50 in assay [13] and in [14] was > 100 µM (inactive) in each case.

Consider `CSC1=N/C(=C\c2ccc(C)cc2)C(=O)N1CN1CCOCC1`, for which the GI50 in [15] is 89.1 µM (inactive); in assay [1], 40 µM (inactive); in assay [2], 35.7 µM (inactive); in assay [16] it was > 100 µM (inactive); in [3] it was > 100 µM (inactive); in [4] it was 95.1 µM (inactive). Also, the GI50 in [5] is > 100 µM (inactive); in [6] it was > 100 µM (inactive); in assay [7], > 100 µM (inactive); in assay [8], 34.1 µM; in [9] it was > 100 µM (inactive); in [11], 55.8 µM (inactive). The figures for the GI50 in assay [12], in assay [13] and in assay [14] were 20.2 µM (inactive), 97.5 µM (inactive) and > 100 µM (inactive), respectively.

On to `c1ccc(/N=c2\snc3scc(-c4ccccc4)n23)cc1`, for which the GI50 in assay [15] is 30.5 µM (inactive); in [1], 39.4 µM (inactive); in assay [3], 66.2 µM (inactive); in assay [4] it was 33 µM (inactive); in [5] it was 34.2 µM (inactive); in assay [6], 22.8 µM (inactive). For the same compound, the GI50 in assay [7] is 40.6 µM (inactive); in [8], 41.6 µM; in assay [17] it was 49.5 µM (inactive); in assay [9] it was 34.8 µM (inactive); in [10] it was 37.4 µM (inactive); in assay [11], 24.5 µM (inactive). In addition, the GI50 in assay [12] was 27.6 µM (inactive); in assay [13], 18.7 µM (inactive); in [14], 44.6 µM (inactive).

Turning to `COc1cc(C2c3cc4c(cc3[C@@H](Nc3ccc(C(=O)O)cc3)C3COC(=O)[C@H]23)OCO4)cc(OC)c1O` (some centres undefined), the GI50 is 8.15 µM (inactive) in assay [15]; 19.4 µM (inactive) in assay [2]; 27.8 µM (inactive) in assay [3]; 20.7 µM (inactive) in assay [4]; 2.46 µM (inactive) in assay [5]; 20 µM (inactive) in assay [6]. Also, the GI50 in assay [7] was 2.49 µM (inactive); in [8] it was 13.4 µM; in assay [17] it was 4.98 µM (inactive); in [9] it was 30.4 µM (inactive); in assay [10] it was 6.56 µM (inactive); in [11], 12.1 µM (inactive). Further, the values for the GI50 in assay [12] and in [14] were 22.5 µM (inactive) and 31.7 µM (inactive), respectively.

Consider `N#C/C(N)=C(C#N)/N=C/N`, for which the GI50 in assay [15], in assay [1], in assay [2], in [16], in assay [3] and in assay [4] was > 100 µM (inactive) each time. In addition, the GI50 was > 100 µM (inactive) in assay [5]; > 100 µM (inactive) in assay [6]; > 100 µM (inactive) in [7]; > 100 µM (inactive) in assay [18]; above 100 µM in assay [8]; > 100 µM (inactive) in assay [9]. Besides, the GI50 is > 100 µM (inactive) in assay [10], > 100 µM (inactive) in assay [11], 58.6 µM (inactive) in assay [12] and > 100 µM (inactive) in assay [14].
